Measured values as given in paper PMC5786306, “An AKAP-Lbc-RhoA interaction inhibitor promotes the translocation of aquaporin-2 to the plasma membrane of renal collecting duct principal cells” (PLoS ONE, 2018).
Entries after “also recorded” stand apart in the source; their conditions may differ.

Columns and labels:
[1] = tested on: AKAP-Lbc-mediated activation of RhoA in HEK293 cells; assay: SRE luciferase reporter assay, AKAP-Lbc expressed; assay type: cell-based, human; settings: Scaff10
Protocol: Luciferase reporter gene assays were performed with the Dual Luciferase Reporter Assay System (Promega) according to manufactures protocol and as previously reported. In brief, HEK293 cells were seeded and co-transfected with the indicated plasmids together with pSRE.L reporter plasmid encoding firefly luciferase (kindly provided from Dr J. Mao and Dr. D. Wu, Rochester, NY) and pRL-TK control vector (Promega, Mannheim, Germany) encoding renilla luciferase. The transfected cells were further cultured in DMEM with 0.5% FCS for 24 h, lysed with passive lysis buffer (Promega). Luciferase activities was measured an Envision Instrument (Perkin Elmer, Rodgau, Germany) in white 96-well plates. […] In Western blots, the protein was detected with primary polyclonal antibody (rabbit; Gramsch, 1:1000). […] AKAP-Lbc was detected with a specific anti-AKAP-Lbc antibody (Abcam; #ab99377; 1:1000). […]
Fig 7 Scaff10-8 inhibits the AKAP-Lbc-mediated activation of RhoA in cells. […] Statistically significant differences were determined applying one-way ANOVA with posthoc Bonferroni. […]
in luciferase activity induced by other GEFs. n=3; statistically significant differences were not found, as confirmed by statistical analysis using ANOVA. […] The fraction of active RhoA was determined using Rhotekin pulldown assays as described. […]

[2] = tested on: Rac1 activity in IMCD cells; assay: PAK-1-PBD pull down, Rac1; assay type: cell-based, rat; settings: 30 μM, 1 h
Protocol: The (p21) binding domain (PBD) of p21 activated kinase 1 protein (PAK-1) spans amino acids 67–150 of PAK-1 and binds specifically to the GTP-bound Rac-1 and Cdc42. The PBD was prepared as described and used for selective precipitation of the activated GTPases from IMCD cells. The PBD was expressed as a GST-fusion protein in DH5α E-coli cells, the cells were lysed using a French press, and the fusion protein was purified with Glutathione Sepharose 4 Fast Flow GST-tagged protein purification resin kit according to the manufacturer’s instructions (GE Healthcare; #17-5132-01). The PAK-1-PBD pull down was carried out with 400–500 μg protein from IMCD cell lysates. Proteins were eluted from the beads by boiling with Laemmli sample buffer, and analyzed by Western blotting. The membranes were first probed for Cdc42, and the GTP-bound active fraction of the protein was related to total Cdc42, and to the loading control GAPDH. The membranes were re-probed for Rac-1 accordingly to determine the active GTP-bound Rac-1 fraction.
Fig 10 Scaff10-8 inhibits activation of RhoA in primary IMCD cells. IMCD cells were incubated with Scaff10-8 (30 μM, 1 h). DMSO (1%), the solvent of Scaff10-8, served as a control. […] Signals were semiquantitatively analyzed by densitometry. […] Statistically significant differences were determined using one-way ANOVA with posthoc Bonferroni. […]

| Structure (SMILES) | AKAP-Lbc-mediated activation of RhoA (SRE luciferase activity) [1] | activity of Rac1 [2] |
| --- | --- | --- |
| COc1ccc(-c2coc3cc4oc(=O)c(C)c(C)c4cc23)cc1 [Scaff10, 3-(4-Methoxyphenyl)-5,6-dimethyl-furo[3,2-g]chromen-7-one] | selectively inhibited; also recorded: concentration-dependently inhibits | – |
| COc1ccc(-c2coc3cc4oc(=O)c(CCC(=O)O)c(C)c4cc23)cc1 [Scaff10-8, 3-[3-(4-Methoxyphenyl)-5-methyl-7-oxo-furo[3,2-g]chromen-6-yl] propanoic acid] | – | did not influence activities |
